From patent US20070270421A1, “Novel pyridine Derivative and Pyrimidine Derivative (1)” (priority 2004, published 2007)

Target: T1, HGFR (His6-HGFR cytoplasmic domain) (Homo sapiens, UniProt P08581)
T1 construct: made in house; host or cells: Spodoptera frugiperda Sf9 insect cells (baculovirus, pFastBac-HT)
Experiment: Inhibitory activity against HGFR tyrosine kinase activity (HTRF)
Format: biochemical
Details: biotin-poly(GT), ATP, 30° C. 10 min, read-out: IC50 (concentration necessary to inhibit HGFR kinase activity by 50%)
Procedure, shortened: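 Baculovirus/Sf9-expressed N-terminal His6-tagged HGFR cytoplasmic domain (from Lys974), Ni-NTA purified, phosphorylated biotin-poly(GT) in Hepes pH 7.4 with MgCl2/MnCl2. ATP added as 4 μM solution; 10 min at 30° C., stopped with EDTA. Phosphotyrosine product detected by HTRF.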

T1 sequence (P08581 956-1390 limits assumed): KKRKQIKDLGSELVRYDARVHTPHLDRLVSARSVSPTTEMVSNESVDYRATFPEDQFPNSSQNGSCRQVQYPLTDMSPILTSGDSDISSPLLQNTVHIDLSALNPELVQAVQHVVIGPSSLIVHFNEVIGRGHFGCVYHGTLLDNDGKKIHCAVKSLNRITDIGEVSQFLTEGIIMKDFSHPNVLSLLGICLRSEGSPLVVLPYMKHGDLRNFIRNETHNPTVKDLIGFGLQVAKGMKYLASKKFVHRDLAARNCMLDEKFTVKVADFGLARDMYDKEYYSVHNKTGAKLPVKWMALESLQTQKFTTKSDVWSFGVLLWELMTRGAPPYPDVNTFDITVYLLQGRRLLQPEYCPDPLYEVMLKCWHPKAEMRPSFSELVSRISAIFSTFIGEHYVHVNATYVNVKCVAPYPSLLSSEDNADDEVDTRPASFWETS

Row | SMILES | IC50 [nM]
1 | CN(C)CC1CCN(C(=O)Nc2cc(Oc3ccc(NC(=S)NC(=O)Cc4ccccc4)cc3F)ccn2)CC1 [Example 311, 2-{[4-(Dimethylaminomethyl)piperidin-1-yl]carbonylamino}-4-(2-fluoro-4-{3-[2-(phenyl)acetyl]thioureido}phenoxy)pyridine] | 48
2 | CN1CCC[C@@H](N(C)C(=O)Nc2cc(Oc3ccc(NC(=S)NC(=O)Cc4ccc(F)cc4)cc3F)ncn2)C1 [Example 312, 3-[6-(2-Fluoro-4-{3-[2-(4-fluorophenyl)acetyl]thioureido}phenoxy)pyrimidin-4-yl]-1-methyl-1-[(3R)-1-methylpiperidin-3-yl]urea] | 48
3 | CC(=O)N1CCC(N(C)C(=O)Nc2cc(Oc3ccc(NC(=S)NC(=O)Cc4ccc(F)cc4)cc3F)ncn2)CC1 [Example 314, 1-(1-Acetylpiperidin-4-yl)-3-[6-(2-fluoro-4-{3-[2-(4-fluorophenyl)acetyl]thioureido}phenoxy)pyrimidin-4-yl]-1-methylurea] | 31
4 | CN1CCC[C@H](N(C)C(=O)Nc2cc(Oc3ccc(NC(=S)NC(=O)Cc4ccc(F)cc4)cc3F)ncn2)C1 [Example 322, 3-[6-(2-Fluoro-4-{3-[2-(4-fluorophenyl)acetyl]thioureido}phenoxy)pyrimidin-4-yl]-1-methyl-1-[(3S)-1-methylpiperidin-3-yl]urea] | 43
5 | CN1CCC(N2CCN(C(=O)Nc3cc(Oc4ccc(NC(=S)NC(=O)Cc5ccccc5)cc4F)ccn3)CC2)CC1 [Example 326, 4-{2-Fluoro-4-[3-(2-phenylacetyl)thioureido]phenoxy}-2-{[4-(1-methylpiperidin-4-yl)piperazin-1-yl]carbonylamino}pyridine] | 130
6 | CN(C)CCN1CCN(C(=O)Nc2cc(Oc3ccc(NC(=S)NC(=O)Cc4ccc(F)cc4)cc3)ccn2)CC1 [Example 327, 2-{[4-(2-Dimethylaminoethyl)piperazin-1-yl]carbonylamino}-4-(4-{3-[2-(4-fluorophenyl)acetyl]thioureido}phenoxy)pyridine] | 75
7 | CN1CCC(N2CCN(C(=O)Nc3cc(Oc4ccc(NC(=S)NC(=O)Cc5ccc(F)cc5)cc4)ccn3)CC2)CC1 [Example 329, 4-(4-{3-[2-(4-Fluorophenyl)acetyl]thioureido}phenoxy)-2-{[4-(1-methylpiperidin-4-yl)piperazin-1-yl]carbonylamino}pyridine] | 64
8 | CN1CC(N2CCC(N(C)C(=O)Nc3cc(Oc4ccc(NC(=S)NC(=O)Cc5ccccc5)cc4F)ccn3)CC2)C1 [Example 330, 3-{4-[2-Fluoro-4-(3-phenylacetylthioureido)phenoxy]pyridin-2-yl}-1-methyl-1-[1-(1-methylazetidin-3-yl)piperidin-4-yl]urea] | 50
9 | CN1CC(N2CCC(N(C)C(=O)Nc3cc(Oc4ccc(NC(=S)NC(=O)Cc5ccc(F)cc5)cc4)ccn3)CC2)C1 [Example 331, 3-(4-{4-[3-(4-Fluorophenyl)acetylthioureido]phenoxy}pyridin-2-yl)-1-methyl-1-[1-(1-methylazetidin-3-yl)piperidin-4-yl]urea] | 84
10 | CN(C)CCN1CCCN(C(=O)Nc2cc(Oc3ccc(NC(=S)NC(=O)Cc4ccccc4)cc3F)ccn2)CC1 [Example 334, 4-(2-Dimethylaminoethyl)-[1,4]diazepane-1-carboxylic acid {4-[2-fluoro-4-(3-phenylacetylthioureido)phenoxy]pyridin-2-yl}amide] | 120
11 | CN(C)C[C@@H]1CCCN(C(=O)Nc2cc(Oc3ccc(NC(=S)NC(=O)Cc4ccccc4)cc3F)ccn2)C1 [Example 335, (3S)-3-Dimethylaminomethylpiperidine-1-carboxylic acid {4-[2-fluoro-4-(3-phenylacetylthioureido)phenoxy]pyridin-2-yl}amide] | 110
12 | CN1CC(N2CCN(C(=O)Nc3cc(Oc4ccc(NC(=S)NC(=O)Cc5ccc(F)cc5)cc4)ccn3)CC2)C1 [Example 337, 4-(1-Methylazetidin-3-yl)piperazine-1-carboxylic acid [4-(4-{3-[2-(4-fluorophenyl)acetyl]thioureido}phenoxy)pyridin-2-yl]amide] | 150
13 | O=C(Cc1ccc(F)cc1)NC(=S)Nc1ccc(Oc2cc(NC(=O)N3CCN(CCN4CCCC4)CC3)ncn2)c(F)c1 [Example 339, 4-(2-Pyrrolidin-1-ylethyl)piperazine-1-carboxylic acid [6-(2-fluoro-4-{3-[2-(4-fluorophenyl)acetyl]thioureido}phenoxy)pyrimidin-4-yl]amide] | 130
14 | CN1CCN(C2CCN(C(=O)Nc3cc(Oc4ccc(NC(=O)NC(=O)Cc5ccccc5)cc4F)ccn3)CC2)CC1 [Example 340, 4-{2-Fluoro-4-[3-(2-phenylacetyl)ureido]phenoxy}-2-{[4-(1-methylpiperazin-4-yl)piperidin-1-yl]carbonylamino}pyridine] | 77
15 | CN1CCC(N2CCN(C(=O)Nc3cc(Oc4ccc(NC(=O)NC(=O)Cc5ccccc5)cc4F)ccn3)CC2)CC1 [Example 341, 4-{2-Fluoro-4-[3-(2-phenylacetyl)ureido]phenoxy}-2-{[4-(1-methylpiperidin-4-yl)piperazin-1-yl]carbonylamino}pyridine] | 100
16 | CN(C)CC1CCN(C(=O)Nc2cc(Oc3ccc(NC(=O)NC(=O)Cc4ccccc4)cc3F)ccn2)CC1 [Example 342, 2-{[4-(Dimethylaminomethyl)piperidin-1-yl]carbonylamino}-4-{2-fluoro-4-[3-(2-phenylacetyl)ureido]phenoxy}pyridine] | 59
17 | CN1CCN(C2CCN(C(=O)Nc3cc(Oc4ccc(NC(=O)NC(=O)Cc5ccc(F)cc5)cc4F)ccn3)CC2)CC1 [Example 343, 4-(2-Fluoro-4-{3-[2-(4-fluorophenyl)acetyl]ureido}phenoxy)-2-{[4-(1-methylpiperazin-4-yl)piperidin-1-yl]carbonylamino}pyridine] | 120
18 | CN1CCN(C2CCN(C(=O)Nc3cc(Oc4ccc(NC(=O)NC(=O)Cc5ccc(F)cc5)cc4)ccn3)CC2)CC1 [Example 344, 4-(4-{3-[2-(4-Fluorophenyl)acetyl]ureido}phenoxy)-2-{[4-(1-methylpiperazin-4-yl)piperidin-1-yl]carbonylamino}pyridine] | 110
19 | CN1CCC(N2CCN(C(=O)Nc3cc(Oc4ccc(NC(=O)NC(=O)Cc5ccc(F)cc5)cc4F)ccn3)CC2)CC1 [Example 345, 4-(2-Fluoro-4-{3-[2-(4-fluorophenyl)acetyl]ureido}phenoxy)-2-{[4-(1-methylpiperidin-4-yl)piperazin-1-yl]carbonylamino}pyridine] | 120
20 | CN1CCC(N2CCN(C(=O)Nc3cc(Oc4ccc(NC(=O)NC(=O)Cc5ccc(F)cc5)cc4)ccn3)CC2)CC1 [Example 346, 4-(4-{3-[2-(4-Fluorophenyl)acetyl]ureido}phenoxy)-2-{[4-(1-methylpiperidin-4-yl)piperazin-1-yl]carbonylamino}pyridine] | 100
21 | CN(C)CC1CCN(C(=O)Nc2cc(Oc3ccc(NC(=O)NC(=O)Cc4ccc(F)cc4)cc3F)ccn2)CC1 [Example 347, 2-{[4-(Dimethylaminomethyl)piperidin-1-yl]carbonylamino}-4-(2-fluoro-4-{3-[2-(4-fluorophenyl)acetyl]ureido}phenoxy)pyridine] | 62
22 | O=C(Cc1ccc(F)cc1)NC(=S)Nc1ccc(Oc2cc(NC(=O)N3CCC(CN4CCCC4)CC3)ncn2)c(F)c1 [Example 349, 4-(Pyrrolidin-1-ylmethyl)piperidine-1-carboxylic acid [6-(2-fluoro-4-{3-[2-(4-fluorophenyl)acetyl]thioureido}phenoxy)pyrimidin-4-yl]amide] | 87
23 | CN(C)CCN1CCC(N(C)C(=O)Nc2cc(Oc3ccc(NC(=O)NC(=O)Cc4ccccc4)cc3F)ccn2)CC1 [Example 353, 1-[1-(2-Dimethylaminoethyl)piperidin-4-yl]-3-{4-[2-fluoro-4-(3-phenylacetylureido)phenoxy]pyridin-2-yl}-1-methylurea] | 180
24 | CN(C)CCN1CCC(N(C)C(=O)Nc2cc(Oc3ccc(NC(=O)NC(=O)Cc4ccc(F)cc4)cc3)ccn2)CC1 [Example 354, 1-[1-(2-Dimethylaminoethyl)piperidin-4-yl]-3-[4-(4-{3-[2-(4-fluorophenyl)acetyl]ureido}phenoxy)pyridin-2-yl]-1-methylurea] | 160
25 | CN(C)CCN1CCN(C(=O)Nc2cc(Oc3ccc(NC(=O)NC(=O)Cc4ccc(F)cc4)cc3F)ccn2)CC1 [Example 362, 2-{[4-(2-Dimethylaminoethyl)piperazin-1-yl]carbonylamino}-4-(2-fluoro-4-{3-[2-(4-fluorophenyl)acetyl]ureido}phenoxy)pyridine] | 130
26 | CN(C)CCN1CCN(C(=O)Nc2cc(Oc3ccc(NC(=O)NC(=O)Cc4ccccc4)cc3F)ccn2)CC1 [Example 364, 2-{[4-(2-Dimethylaminoethyl)piperazin-1-yl]carbonylamino}-4-{2-fluoro-4-[3-(2-phenylacetyl)ureido]phenoxy}pyridine] | 97
27 | CN(C)C1CN(C2CCN(C(=O)Nc3cc(Oc4ccc(NC(=S)NC(=O)Cc5ccccc5)cc4F)ccn3)CC2)C1 [Example 373, 4-(3-Dimethylaminoazetidin-1-yl)piperidine-1-carboxylic acid {4-[2-fluoro-4-(3-phenylacetylthioureido)phenoxy]pyridin-2-yl}amide] | 77
28 | CN1CC(N2CCN(C(=O)Nc3cc(Oc4ccc(NC(=O)NC(=O)Cc5ccc(F)cc5)cc4)ccn3)CC2)C1 [Example 376, 4-(1-Methylazetidin-3-yl)piperazine-1-carboxylic acid [4-(4-{3-[2-(4-fluorophenyl)acetyl]ureido}phenoxy)pyridin-2-yl]amide] | 65
29 | CN1CC(N2CCN(C(=O)Nc3cc(Oc4ccc(NC(=O)NC(=O)Cc5ccccc5)cc4F)ccn3)CC2)C1 [Example 377, 4-(1-Methylazetidin-3-yl)piperazine-1-carboxylic acid {4-[2-fluoro-4-(3-phenylacetylureido)phenoxy]pyridin-2-yl}amide] | 68
